Tests used:
[1] = target: Beta-1 adrenergic receptor (Homo sapiens, UniProt P08588); test: DRUGMATRIX: Adrenergic beta1 radioligand binding (ligand: [125I] Cyanopindolol); assay type: cell membranes, CHO-K1, Membrane; conditions: cho-k1; Not Active = under 50% inhibition at 10 µM
[2] = target: T1, 5-hydroxytryptamine receptor 2C (Homo sapiens, UniProt P28335); test: DRUGMATRIX: Serotonin (5-Hydroxytryptamine) 5-HT2C radioligand binding (ligand: [3H] Mesulergine); assay type: cell membranes, CHO-K1, Membrane; conditions: Not Active = under 50% inhibition at 10 µM
T1 sequence (P28335 whole entry): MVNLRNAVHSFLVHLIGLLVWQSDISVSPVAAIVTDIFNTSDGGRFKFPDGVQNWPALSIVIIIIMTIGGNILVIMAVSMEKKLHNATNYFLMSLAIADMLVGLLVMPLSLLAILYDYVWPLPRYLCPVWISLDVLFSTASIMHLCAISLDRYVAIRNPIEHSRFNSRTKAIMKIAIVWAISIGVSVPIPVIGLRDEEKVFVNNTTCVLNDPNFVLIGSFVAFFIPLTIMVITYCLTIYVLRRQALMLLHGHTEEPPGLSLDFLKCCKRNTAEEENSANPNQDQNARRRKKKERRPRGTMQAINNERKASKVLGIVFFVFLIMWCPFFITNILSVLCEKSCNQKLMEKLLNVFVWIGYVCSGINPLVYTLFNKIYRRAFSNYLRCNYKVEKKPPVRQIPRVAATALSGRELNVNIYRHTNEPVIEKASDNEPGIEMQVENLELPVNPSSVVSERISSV

[3] = target: Sigma non-opioid intracellular receptor 1 (Homo sapiens, UniProt Q99720); test: DRUGMATRIX: Sigma1 radioligand binding (ligand: [3H] Haloperidol); assay type: cell membranes, Jurkat, Membrane; conditions: Not Active = under 50% inhibition at 10 µM; for Ki: read-out: Ki
[4] = target: Vascular endothelial growth factor receptor 1 (Homo sapiens, UniProt P17948); assay type: cell-based; conditions: huvec; further: in other assays of this panel Not Active means under 50% inhibition at 10 µM
Cannabinoid receptor 1 = Cannabinoid receptor 1 (Homo sapiens, UniProt P21554); assay type: cell membranes, Membrane; conditions: chem-1; further: in other assays of this panel Not Active means under 50% inhibition at 10 µM
[5] = target: T2, C-X-C chemokine receptor type 1 (Homo sapiens, UniProt P25024); further: in other assays of this panel Not Active means under 50% inhibition at 10 µM
T2 sequence (P25024 whole entry): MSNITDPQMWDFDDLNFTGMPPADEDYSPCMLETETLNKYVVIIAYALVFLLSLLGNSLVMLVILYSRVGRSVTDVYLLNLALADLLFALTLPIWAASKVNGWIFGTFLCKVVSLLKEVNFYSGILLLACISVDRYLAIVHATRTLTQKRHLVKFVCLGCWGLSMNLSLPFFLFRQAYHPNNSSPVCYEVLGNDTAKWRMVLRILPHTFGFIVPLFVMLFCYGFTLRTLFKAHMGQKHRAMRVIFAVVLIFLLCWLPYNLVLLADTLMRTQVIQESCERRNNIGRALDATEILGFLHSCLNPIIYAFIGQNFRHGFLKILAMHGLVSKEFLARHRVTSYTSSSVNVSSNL

[6] = target: T3, C-X-C chemokine receptor type 2 (Homo sapiens, UniProt P25025); assay type: cell membranes, Membrane; conditions: cho-k1; further: in other assays of this panel Not Active means under 50% inhibition at 10 µM
T3 sequence (P25025 whole entry): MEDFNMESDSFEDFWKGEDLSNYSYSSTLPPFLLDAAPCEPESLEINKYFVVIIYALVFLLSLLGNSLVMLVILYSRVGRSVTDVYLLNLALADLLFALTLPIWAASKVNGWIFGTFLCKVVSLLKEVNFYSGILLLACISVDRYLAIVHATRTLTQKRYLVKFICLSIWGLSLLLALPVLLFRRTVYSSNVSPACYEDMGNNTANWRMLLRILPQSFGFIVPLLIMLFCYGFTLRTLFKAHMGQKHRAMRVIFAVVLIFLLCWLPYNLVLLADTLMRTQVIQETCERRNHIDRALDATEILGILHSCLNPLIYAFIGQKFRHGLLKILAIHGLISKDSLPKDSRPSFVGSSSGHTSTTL

[7] = DRUGMATRIX: Glutamate, NMDA, Phencyclidine radioligand binding (ligand: [3H] TCP); assay type: cell membranes, Rattus norvegicus, Wistar, Cerebral cortex, Membrane; conditions: Not Active = under 50% inhibition at 10 µM
[8] = DRUGMATRIX: Imidazoline I2, Central radioligand binding (ligand: [3H] Idazoxan); assay type: cell membranes, Rattus norvegicus, Wistar, Cerebral cortex, Membrane; conditions: Not Active = under 50% inhibition at 10 µM
Insulin receptor = Insulin receptor (Rattus norvegicus, UniProt P15127); assay type: cell membranes, Wistar, Liver, Membrane; further: in other assays of this panel Not Active means under 50% inhibition at 10 µM
[9] = DRUGMATRIX: Interleukin IL-1 radioligand binding (ligand: [125I] interleukin 1beta); assay type: cell membranes, Membrane; conditions: nih3t3; Not Active = under 50% inhibition at 10 µM
[10] = DRUGMATRIX: Leukotriene, BLT (LTB4) radioligand binding (ligand: [3H]LTB4); assay type: cell membranes, Membrane; conditions: u-937; Not Active = under 50% inhibition at 10 µM
[11] = target: Delta-type opioid receptor (Homo sapiens, UniProt P41143); assay type: cell membranes, HEK293, Membrane; conditions: hek293; further: in other assays of this panel Not Active means under 50% inhibition at 10 µM
[12] = DRUGMATRIX: Phorbol Ester radioligand binding (ligand: [3H] PDBu); assay type: cell membranes, Mus musculus, ICR, Brain, Membrane; conditions: Not Active = under 50% inhibition at 10 µM
Neutrophil elastase = target: T4, Neutrophil elastase (Homo sapiens, UniProt P08246); assay type: tissue-based
T4 sequence (P08246 whole entry): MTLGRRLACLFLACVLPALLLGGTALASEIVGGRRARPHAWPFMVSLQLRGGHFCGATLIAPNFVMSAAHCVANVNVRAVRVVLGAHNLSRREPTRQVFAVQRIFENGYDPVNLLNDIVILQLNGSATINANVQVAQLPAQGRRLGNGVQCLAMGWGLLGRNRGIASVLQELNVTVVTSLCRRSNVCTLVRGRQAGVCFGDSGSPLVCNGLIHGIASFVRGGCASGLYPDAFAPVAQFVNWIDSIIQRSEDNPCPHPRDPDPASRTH

[13] = target: Mitogen-activated protein kinase 14 (Homo sapiens, UniProt Q16539); set-up: species or system Escherichia coli
[14] = target: Tyrosine-protein kinase Fyn (Homo sapiens, UniProt P06241); test: biochemical; assay type: cell-based, Insect cells; conditions: insect cells
[15] = target: Tyrosine-protein kinase Lck (Homo sapiens, UniProt P06239); test: DRUGMATRIX: Protein Tyrosine Kinase, LCK enzyme inhibition (substrate: Poly(Glu:Tyr)); assay type: cell-based, Insect cells; conditions: insect cells; Not Active = under 50% inhibition at 10 µM
Sequence of Tyrosine-protein kinase Lck (P06239 whole entry): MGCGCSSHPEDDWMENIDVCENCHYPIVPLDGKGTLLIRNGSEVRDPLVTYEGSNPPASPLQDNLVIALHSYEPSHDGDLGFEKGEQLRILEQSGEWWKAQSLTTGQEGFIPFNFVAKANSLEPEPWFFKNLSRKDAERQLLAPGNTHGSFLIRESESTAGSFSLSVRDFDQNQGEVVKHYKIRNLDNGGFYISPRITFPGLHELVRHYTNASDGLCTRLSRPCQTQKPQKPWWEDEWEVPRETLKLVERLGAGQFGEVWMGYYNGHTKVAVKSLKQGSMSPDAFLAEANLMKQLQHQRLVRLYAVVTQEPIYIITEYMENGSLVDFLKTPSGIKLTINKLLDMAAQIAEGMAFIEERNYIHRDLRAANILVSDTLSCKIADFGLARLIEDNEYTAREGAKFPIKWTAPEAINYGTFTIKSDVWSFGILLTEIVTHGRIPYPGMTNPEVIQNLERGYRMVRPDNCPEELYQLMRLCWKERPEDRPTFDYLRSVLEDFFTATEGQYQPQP

Sequence of Sigma non-opioid intracellular receptor 1 (Q99720 whole entry): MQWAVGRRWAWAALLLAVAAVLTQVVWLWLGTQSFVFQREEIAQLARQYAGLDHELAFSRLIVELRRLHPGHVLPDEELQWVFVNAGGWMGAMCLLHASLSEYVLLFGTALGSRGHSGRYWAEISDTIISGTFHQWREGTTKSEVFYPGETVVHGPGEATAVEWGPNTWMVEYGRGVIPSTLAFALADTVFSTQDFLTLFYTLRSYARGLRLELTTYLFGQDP
Sequence of Cannabinoid receptor 1 (P21554 whole entry): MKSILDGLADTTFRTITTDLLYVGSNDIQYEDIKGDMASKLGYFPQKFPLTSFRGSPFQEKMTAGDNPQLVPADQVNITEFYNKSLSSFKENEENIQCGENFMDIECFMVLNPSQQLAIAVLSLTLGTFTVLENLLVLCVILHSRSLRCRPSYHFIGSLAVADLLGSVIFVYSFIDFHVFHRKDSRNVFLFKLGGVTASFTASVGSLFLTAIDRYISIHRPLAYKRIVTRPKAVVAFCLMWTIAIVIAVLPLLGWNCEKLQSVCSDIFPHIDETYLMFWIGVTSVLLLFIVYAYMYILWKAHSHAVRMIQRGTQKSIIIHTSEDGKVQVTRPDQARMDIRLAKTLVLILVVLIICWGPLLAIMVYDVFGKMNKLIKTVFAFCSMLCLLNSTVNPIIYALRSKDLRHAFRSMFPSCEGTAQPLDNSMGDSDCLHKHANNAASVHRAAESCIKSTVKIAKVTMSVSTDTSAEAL
Sequence of Tyrosine-protein kinase Fyn (P06241 whole entry): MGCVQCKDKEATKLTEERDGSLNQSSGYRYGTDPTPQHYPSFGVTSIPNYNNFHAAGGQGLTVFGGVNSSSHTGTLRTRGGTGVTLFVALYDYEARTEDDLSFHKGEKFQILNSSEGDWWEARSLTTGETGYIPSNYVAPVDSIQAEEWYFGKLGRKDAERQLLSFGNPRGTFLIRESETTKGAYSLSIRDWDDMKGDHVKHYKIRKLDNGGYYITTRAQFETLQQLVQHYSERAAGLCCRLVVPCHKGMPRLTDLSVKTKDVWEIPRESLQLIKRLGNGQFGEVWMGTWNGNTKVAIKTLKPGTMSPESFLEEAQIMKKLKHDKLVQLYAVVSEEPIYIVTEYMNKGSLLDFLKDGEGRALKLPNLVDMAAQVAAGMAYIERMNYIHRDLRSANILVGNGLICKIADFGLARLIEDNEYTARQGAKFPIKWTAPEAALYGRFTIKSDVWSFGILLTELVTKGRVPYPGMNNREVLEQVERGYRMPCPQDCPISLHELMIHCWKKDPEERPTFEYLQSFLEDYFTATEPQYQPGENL
Sequence of Insulin receptor (P15127 27-759 limits assumed): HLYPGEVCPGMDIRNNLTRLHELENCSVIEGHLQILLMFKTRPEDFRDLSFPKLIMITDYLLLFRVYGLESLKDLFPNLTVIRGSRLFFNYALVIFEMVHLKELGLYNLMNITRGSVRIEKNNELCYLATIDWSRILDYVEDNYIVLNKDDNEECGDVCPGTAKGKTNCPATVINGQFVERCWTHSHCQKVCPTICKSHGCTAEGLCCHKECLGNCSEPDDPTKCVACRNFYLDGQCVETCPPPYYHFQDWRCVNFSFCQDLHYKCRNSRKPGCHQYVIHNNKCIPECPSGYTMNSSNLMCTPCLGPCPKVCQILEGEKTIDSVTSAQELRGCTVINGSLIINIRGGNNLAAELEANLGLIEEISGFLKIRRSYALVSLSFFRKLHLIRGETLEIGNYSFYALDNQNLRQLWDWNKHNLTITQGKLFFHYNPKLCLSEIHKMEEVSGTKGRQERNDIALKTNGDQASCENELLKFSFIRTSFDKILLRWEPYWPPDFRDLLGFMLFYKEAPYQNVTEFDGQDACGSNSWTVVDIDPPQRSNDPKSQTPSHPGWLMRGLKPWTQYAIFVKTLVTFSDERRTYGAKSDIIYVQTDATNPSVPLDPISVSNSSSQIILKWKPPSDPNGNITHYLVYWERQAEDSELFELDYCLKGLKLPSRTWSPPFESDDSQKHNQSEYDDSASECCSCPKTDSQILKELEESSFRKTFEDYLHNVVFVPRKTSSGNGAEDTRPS
Sequence of Insulin receptor (P15127 764-1383 limits assumed): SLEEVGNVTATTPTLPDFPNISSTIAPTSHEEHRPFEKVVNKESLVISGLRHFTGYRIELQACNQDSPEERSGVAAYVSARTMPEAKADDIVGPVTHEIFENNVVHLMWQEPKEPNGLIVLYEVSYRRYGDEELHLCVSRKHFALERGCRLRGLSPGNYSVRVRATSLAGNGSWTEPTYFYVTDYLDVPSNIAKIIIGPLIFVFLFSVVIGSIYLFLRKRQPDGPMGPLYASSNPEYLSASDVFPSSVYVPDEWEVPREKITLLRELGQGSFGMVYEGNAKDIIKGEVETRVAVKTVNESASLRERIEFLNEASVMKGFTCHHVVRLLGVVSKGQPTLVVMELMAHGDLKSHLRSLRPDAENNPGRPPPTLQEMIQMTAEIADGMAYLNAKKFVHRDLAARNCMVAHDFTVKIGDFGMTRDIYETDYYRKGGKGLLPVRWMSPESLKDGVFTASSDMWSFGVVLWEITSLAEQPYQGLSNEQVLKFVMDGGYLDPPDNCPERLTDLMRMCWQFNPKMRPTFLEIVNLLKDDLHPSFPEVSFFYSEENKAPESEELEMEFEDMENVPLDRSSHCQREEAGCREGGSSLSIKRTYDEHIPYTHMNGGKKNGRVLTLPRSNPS
Sequence of Beta-1 adrenergic receptor (P08588 whole entry): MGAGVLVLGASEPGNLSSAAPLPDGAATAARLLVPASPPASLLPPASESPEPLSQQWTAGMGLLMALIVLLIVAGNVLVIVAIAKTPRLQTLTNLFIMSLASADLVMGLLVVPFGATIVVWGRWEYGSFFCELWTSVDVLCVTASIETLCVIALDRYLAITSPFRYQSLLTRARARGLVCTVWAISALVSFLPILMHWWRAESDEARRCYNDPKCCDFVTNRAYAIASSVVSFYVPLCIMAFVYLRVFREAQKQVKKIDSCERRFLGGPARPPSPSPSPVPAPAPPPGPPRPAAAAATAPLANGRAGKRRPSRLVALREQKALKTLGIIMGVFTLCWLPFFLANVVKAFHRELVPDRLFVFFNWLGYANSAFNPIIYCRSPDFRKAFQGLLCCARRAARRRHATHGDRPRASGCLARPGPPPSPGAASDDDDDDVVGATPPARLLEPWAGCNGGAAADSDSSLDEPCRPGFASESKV
Sequence of Delta-type opioid receptor (P41143 whole entry): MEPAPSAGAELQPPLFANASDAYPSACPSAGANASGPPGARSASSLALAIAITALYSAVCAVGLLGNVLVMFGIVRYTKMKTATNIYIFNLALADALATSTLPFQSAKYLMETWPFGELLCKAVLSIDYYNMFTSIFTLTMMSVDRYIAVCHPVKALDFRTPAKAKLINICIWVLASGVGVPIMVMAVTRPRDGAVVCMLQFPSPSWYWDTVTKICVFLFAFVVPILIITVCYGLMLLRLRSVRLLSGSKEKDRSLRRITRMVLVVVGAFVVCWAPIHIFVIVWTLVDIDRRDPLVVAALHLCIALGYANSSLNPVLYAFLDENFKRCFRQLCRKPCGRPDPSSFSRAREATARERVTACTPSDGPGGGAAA
Sequence of Mitogen-activated protein kinase 14 (Q16539 whole entry): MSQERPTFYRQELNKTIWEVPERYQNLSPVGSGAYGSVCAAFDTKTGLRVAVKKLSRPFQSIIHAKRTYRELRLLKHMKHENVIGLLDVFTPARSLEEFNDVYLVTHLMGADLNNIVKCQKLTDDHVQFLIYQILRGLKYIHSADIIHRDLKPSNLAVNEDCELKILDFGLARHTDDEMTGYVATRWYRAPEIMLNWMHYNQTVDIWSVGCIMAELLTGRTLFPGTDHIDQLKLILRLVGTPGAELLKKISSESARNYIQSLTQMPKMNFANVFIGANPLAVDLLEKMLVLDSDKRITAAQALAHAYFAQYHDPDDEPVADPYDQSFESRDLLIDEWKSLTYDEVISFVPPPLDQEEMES

SMILES	IC50 [1]	IC50 ([2]; cho-k1)	IC50 [4]	IC50 (Cannabinoid receptor 1)	IC50 [5]	IC50 [6]	IC50 [7]	Ki [7]	IC50 (Insulin receptor)	IC50 [9]	Ki [9]	IC50 [10]	Ki [10]	IC50 [11]	IC50 [12]	Ki [12]	IC50 (Neutrophil elastase)	IC50 [13]	IC50 [14]	IC50 [15]	other results
C=C1CC[C@H](O)C/C1=C/C=C1\CCC[C@]2(C)[C@@H]([C@H](C)/C=C/[C@H](C)C(C)C)CC[C@@H]12 [ERGOCALCIFEROL]	Not Active	Not Active	Not Active	Not Active	Not Active	Not Active	Not Active	Not Active	Not Active	Not Active	Not Active	Not Active	Not Active	Not Active	Not Active	Not Active	Not Active	Not Active	Not Active	Not Active	IC50 ([3]; jurkat): Not Active; IC50 [8]: Not Active; Ki [8]: Not Active
COc1ccc(CN(CCN(C)C)c2ccccn2)cc1 [PYRILAMINE]	Not Active	–	Not Active	Not Active	Not Active	Not Active	Not Active	Not Active	Not Active	Not Active	Not Active	Not Active	Not Active	Not Active	Not Active	Not Active	Not Active	Not Active	Not Active	Not Active	IC50 ([2]; read-out: IC50): 1130 nM; Ki ([2]; read-out: Ki): 592 nM; IC50 ([3]; read-out: IC50): 1560 nM; Ki [3]: 655 nM; IC50 ([8]; read-out: IC50): 3340 nM; Ki ([8]; read-out: Ki): 2230 nM
NCC(=O)O [GLYCINE]	Not Active	Not Active	Not Active	Not Active	Not Active	Not Active	Not Active	Not Active	Not Active	Not Active	Not Active	Not Active	Not Active	Not Active	Not Active	Not Active	Not Active	Not Active	Not Active	Not Active	IC50 ([3]; jurkat): Not Active; IC50 [8]: Not Active; Ki [8]: Not Active
CN1C(C(=O)Nc2ccccn2)=C(O)c2ccccc2S1(=O)=O [PIROXICAM]	Not Active	Not Active	Not Active	Not Active	Not Active	Not Active	Not Active	Not Active	Not Active	Not Active	Not Active	Not Active	Not Active	Not Active	Not Active	Not Active	Not Active	Not Active	Not Active	Not Active	IC50 ([3]; jurkat): Not Active; IC50 [8]: Not Active; Ki [8]: Not Active
CCc1ccc(C(=O)C(C)CN2CCCCC2)cc1 (centres undefined) [EPERISONE]	Not Active	Not Active	Not Active	Not Active	Not Active	Not Active	Not Active	Not Active	Not Active	Not Active	Not Active	Not Active	Not Active	Not Active	Not Active	Not Active	Not Active	Not Active	Not Active	Not Active	IC50 ([3]; read-out: IC50): 4.05 nM; Ki [3]: 1.7 nM; IC50 [8]: Not Active; Ki [8]: Not Active
CC(=O)[C@@]1(O)CC[C@H]2[C@@H]3C[C@H](C)C4=CC(=O)C=C[C@]4(C)[C@@]3(F)[C@@H](O)C[C@@]21C [FLUOROMETHOLONE]	Not Active	Not Active	Not Active	Not Active	Not Active	Not Active	Not Active	Not Active	Not Active	Not Active	Not Active	Not Active	Not Active	Not Active	Not Active	Not Active	Not Active	Not Active	Not Active	Not Active	IC50 ([3]; jurkat): Not Active; IC50 [8]: Not Active; Ki [8]: Not Active
CCC1(c2ccccc2)C(=O)NCNC1=O [PRIMIDONE]	Not Active	Not Active	Not Active	Not Active	Not Active	Not Active	Not Active	Not Active	Not Active	Not Active	Not Active	Not Active	Not Active	Not Active	Not Active	Not Active	Not Active	Not Active	Not Active	Not Active	IC50 ([3]; jurkat): Not Active; IC50 [8]: Not Active; Ki [8]: Not Active

From ChEMBL document CHEMBL1909046, “DrugMatrix in vitro pharmacology data”
